US11465972B2, “Inhibitors of oxidized low-density lipoprotein receptor 1 and methods of use thereof” (United States Government as represented by the Department …, priority 2015, dated 2022)
Entries after “also recorded” stand apart in the source; their conditions may differ.

Assays:
LOX-1 protein expression = assay: ox-LDL-induced LOX-1 protein expression in HUVECs (Western blotting); assay type: cell-based, human; conditions: 200 nM, 5 μg/ml ox-LDL
Protocol: FIG. 3A, FIG. 3B, FIG. 3C and FIG. 3D depict the inhibitory effect of the lead compounds on Dil-ox-LDL uptake by HUVECs and CHO cells (measured by flow cytometry) and the effect of the lead compounds on ox-LDL-induced LOX-1 mRNA and protein expression. (FIG. 3A) (Upper Panel) Flow cytometry measurements using HUVECs in the presence of the five lead compounds (Mol-1-Mol-5), each a at 200 nM concentration. (Lower Panel) The percentage of internalized ox-LDL. Graphs show data as mean (±SD); n=4. *P<0.01 or <0.05 vs. control. (FIG. 3B) IC50 value for Mol-5. IC50 value (in nM) is based on inhibition of Dil-ox-LDL uptake in CHO cells overexpressing human LOX-1. Graphs show data as mean (±SD); n=5. *P<0.01 or <0.05 vs. control. (FIG. 3C) Western blotting assay showing LOX-1 protein expression in HUVECs following incubation with 200 nM Mol-1 to Mol-5 for 30 min, and subsequently exposure to 5 μg/mL ox-LDL for 6 hours. (FIG. 3D) The variation of LOX-1 mRNA expression levels at different concentrations of the compounds following exposure of HUVECs to 5 μg/mL ox-LDL. The concentrations are indicated on the X-axis and the LOX-1 mRNA levels are shown on the Y-axis. The plots for all the five molecules are shown in separate colors. Graphs show data as mean (±SD); n=3. *P<0.01 vs. control; #P<0.01 vs. ox-LDL group.
Internalization of ox-LDL via binding to LOX-1 activates endothelial cells and upregulates the expression of LOX-1^2. In this study, it was tested if the lead molecules would inhibit LOX-1 expression. Accordingly, LOX-1 protein expression in HUVECs was measured by Western blotting.
HUVECs were plated into 6-well cell culture plates. […] The protein concentrations were measured by Bradford protein assay. […] The protein bands were scanned by a Gel Doc™ XR System (Bio-Rad, Hercules, Calif.), and the density of each band was quantified by Image J software. The relative expression of target proteins was calculated with comparison to […] bands.

[1] = Liver microsomal stability, mouse; assay type: in vitro ADME; conditions: mouse liver microsomes
Protocol: Metabolic stability or clearance is recognized as one of the main determinants of drug concentration in blood. The metabolic stability of Mol-5 was tested using liver microsomes form mice and humans to obtain stability ranking and intrinsic clearance.

VCAM-1 mRNA = assay: ox-LDL-induced VCAM-1 mRNA expression in HUVECs (q-PCR); assay type: cell-based, human; conditions: 5 μg/mL ox-LDL for 6 hrs
Protocol: FIG. 4A, FIG. 4B, FIG. 4C, FIG. 4D and FIG. 4E depict the effect of lead molecules on ox-LDL-induced the activation of MAPKs in HUVECs, VCAM-1 expression and monocyte adhesion onto HUVECs. […] (FIG. 4B) Western blot analyses showing phospho-p38MAPK expression in HUVECs following exposure to 200 nM of each compound for 30 min, and subsequently exposed to 5 μg/mL ox-LDL for 6 hours. […] (FIG. 4D) The variation of VCAM-1 mRNA expression levels with different concentrations of the led compounds. The concentrations are indicated on the X-axis and the VCAM-1 mRNA levels are shown on the Y-axis. The plots for all five molecules are shown in separate colors. […]
It is known that the activation of LOX-1 by ox-LDL in endothelial cells stimulates the expression of leukocyte adhesion molecules^26. In this study, VCAM-1 expression in HUVECs in the presence of 5 μg/ml ox-LDL was measured. […] VCAM-1 mRNA expression in HUVECs exposed to 5 μg/mL ox-LDL for 6 hrs was also measured.
HUVECs were plated into 12-well plates, and treated with 0, 20, 200 and 2000 nM of each of 5 molecules […] for 30 min, and subsequently exposed to […] ox-LDL for 6 h at 37° C. […] Data was analyzed by using MX3000P software. Relative mRNA expression was quantified using the comparative threshold cycle (Ct) method. […]

Row | half-life [1] [min] | metabolic stability (in words) [1] | microsomal CLint [1] [µL/min/mg] | Structure (SMILES) | effect on ox-LDL-induced LOX-1 protein expression (LOX-1 protein expression) | effect on ox-LDL-mediated VCAM-1 mRNA upregulation (VCAM-1 mRNA)
1 |  |  |  | CCOCCCNC(=O)CCN1C(=O)COc2ccccc21 [Mol-1] | significantly reduced | 
2 | 1.7 ± 0.1 | low stability | 836 ± 40.8 | Cc1cc(C)n(CC(O)COc2ccccc2)n1 (centres unmarked) [Mol-5, 1-(3,5-dimethyl-1H-pyrazol-1-yl)-3-phenoxypropan-2-ol] | significantly reduced | significantly reduced; also recorded: significantly inhibited
3 |  |  |  | CCCn1c(CCNC(=O)CCCO)nc2ccccc21 [Mol-4] | significantly reduced | significantly reduced; also recorded: significantly inhibited
